{"source": "patent US20170239307A1", "about": "“COMPOSITION OF DOXYCYCLINE IN LIPOSOMES FOR THE PREVENTION, IMPROVEMENT AND/OR TREATMENT OF OCULAR PATHOLOGIES” (AGENCIA PÚBLICA EMPRESARIAL SANITARIA HOSPITAL ALTO …, priority 2014, published 2017)", "key": {"[1]": {"tested_on": "symptoms derived from blepharitis-dry eye like disease", "experiment": "Symptom score according to the dry eye questionnaire", "assay_type": "in vivo, patients", "text": "FIG. 2. Individual analysis of each patient according to dry eye questionnaire score. All patients completed a questionnaire to evaluate the symptoms derived from blepharitis-dry eye like disease. […] FIG. 3. […] This figure complements FIG. 2. This test was designed (see test design literature) for assessing the symptoms the patient experiences and they can be expressed by means of a score based on questions about these symptoms."}, "diabetic retinopathy": {"tested_on": "diabetic retinopathy", "experiment": "Case report: supervision of the fundus of the eye in a diabetic patient", "assay_type": "in vivo", "details": "diabetic patient with high blood glucose; treatment orally and as eye drops from 11 Feb. 2009"}, "aneurysmal dilatation": {"tested_on": "aneurysmal dilatation", "details": "rats; cited from earlier work"}, "vascular intimal layer": {"tested_on": "vascular intimal layer", "details": "patients taking doxycycline; cited from earlier work"}, "thrombosis": {"tested_on": "thrombosis", "details": "certain groups of hemodialysis patients; cited from earlier work"}, "[2]": {"tested_on": "chronic anterior and posterior blepharitis", "experiment": "Case report: patient with blepharitis and glycemic decompensation, clinic examinations", "details": "same patient; high doses of oral doxycycline prescribed for 20 days, treatment abandoned", "from_the_text": "Treatment with tobramycin and dexamethasone in the form of eye drops and artificial tears was established at that time."}}}
{"smiles": "C[C@H]1c2cccc(O)c2C(O)=C2C(=O)[C@]3(O)C(=O)/C(=C(/N)O)C(=O)[C@@H](N(C)C)[C@@H]3[C@@H](O)[C@@H]21", "note": "[doxycycline, (2Z,4S,4aR,5S,5aR,6R,12aS)-2-(amino-hydroxymethylidene)-4-dimethylamino-5,10,11,12a-tetrahydroxy-6-methyl-4a,5,5a,6-tetrahydro-4H-tetracene-1,3,12-trione]", "values": [{"measurement": "symptom score, dry eye questionnaire, each patient", "setting": "[1]; 12 blepharitis patients, before treatment at least moderate, most severe, FIG. 2", "value": "symptoms improved"}, {"measurement": "sum of all the scores in all patients, dry eye questionnaire", "setting": "[1]; before vs after treatment, FIG. 3", "value": "Symptoms decreased significantly"}, {"measurement": "signs of diabetic retinopathy", "setting": "diabetic retinopathy", "value": "no signs of diabetic retinopathy"}, {"measurement": "aneurysmal dilatation", "setting": "aneurysmal dilatation", "value": "capable of preventing aneurysmal dilatation without subsequent signs of inflammation"}, {"measurement": "vascular intimal layer proliferation and muscle cell migration", "setting": "vascular intimal layer", "value": "less vascular intimal layer proliferation as well as less muscle cell migration"}, {"measurement": "prevention of thrombosis", "setting": "thrombosis", "value": "effective in the prevention of thrombosis"}, {"measurement": "intolerance / side effect", "setting": "[2]", "value": "an episode of gastritis"}]}
